Results taken from ChEMBL document CHEMBL2203136, “Synthesis, characterization, biological evaluation and QSAR studies of 11-p-substituted phenyl-12-phenyl-11a,12-dihydro-11H-indeno[2,1-c][1,5]benzothiazepines as potential antimicrobial agents” (Eur J Med Chem, 2012).
≈ marks a conversion by molar mass, not a printed value. Calls of active or inactive are those of the source. The calls are words filed in the database; no cut-off is given here.

What was measured:
[1] = test system: Bacillus subtilis
[2] = test system: Escherichia coli; experiment: Antibacterial activity against Escherichia coli MTCC 42 after 24 hrs by serial dilution method; type: functional; details: for MIC: Escherichia coli, MTCC 42, 24 h
[3] = Octanol-water partition coefficient, log P of the compound; type: physicochemical
[4] = test system: Bacillus subtilis; experiment: microbe, parasite or virus in culture; details: MTCC 441, 24 h
[5] = test system: Escherichia coli; experiment: Antibacterial activity against Escherichia coli MTCC 42 after 24 hrs by serial dilution method relative to 11,12-Diphenyl-11a,12-dihydro-11H-indeno[2,1-c][1,5]benzothiazepine; type: functional
[6] = test system: Pseudomonas aeruginosa; experiment: Antibacterial activity against Pseudomonas aeruginosa MTCC 7952 after 24 hrs by serial dilution method relative to 11,12-Diphenyl-11a,12-dihydro-11H-indeno[2,1-c][1,5]benzothiazepine; type: functional
[7] = test system: Candida albicans; experiment: Antifungal activity against Candida albicans MTCC 183 after 72 hrs by serial dilution method relative to 11,12-Diphenyl-11a,12-dihydro-11H-indeno[2,1-c][1,5]benzothiazepine; type: functional
[8] = test system: Candida albicans; experiment: Antifungal activity against Candida albicans MTCC 183 after 72 hrs by serial dilution method; type: functional; details: for MIC: Candida albicans, MTCC 183, 72 h
[9] = test system: Staphylococcus aureus; experiment: Antibacterial activity against Staphylococcus aureus MTCC 7443 after 24 hrs by serial dilution method; type: functional; details: for MIC: Staphylococcus aureus, MTCC 7443, 24 h
[10] = test system: Pseudomonas aeruginosa; experiment: Antibacterial activity against Pseudomonas aeruginosa MTCC 7952 after 24 hrs by serial dilution method; type: functional; details: for MIC: Pseudomonas aeruginosa, MTCC 7952, 24 h
[11] = test system: Aspergillus fumigatus; experiment: Antifungal activity against Aspergillus fumigatus MTCC 2550 after 72 hrs by serial dilution method relative to 11,12-Diphenyl-11a,12-dihydro-11H-indeno[2,1-c][1,5]benzothiazepine; type: functional
[12] = test system: Bacillus subtilis; experiment: Antibacterial activity against Bacillus subtilis MTCC 441 after 24 hrs by serial dilution method relative to 11,12-Diphenyl-11a,12-dihydro-11H-indeno[2,1-c][1,5]benzothiazepine; type: functional
[13] = test system: Aspergillus fumigatus; experiment: Antifungal activity against Aspergillus fumigatus MTCC 2550 after 72 hrs by serial dilution method; type: functional; details: for MIC: Aspergillus fumigatus, MTCC 2550, 72 h
[14] = test system: Staphylococcus aureus; experiment: Antibacterial activity against Staphylococcus aureus MTCC 7443 after 24 hrs by serial dilution method relative to 11,12-Diphenyl-11a,12-dihydro-11H-indeno[2,1-c][1,5]benzothiazepine; type: functional

| SMILES | -logMIC [1] | -logMIC [2] | MIC [2] [µM] | logP [3] | MIC [4] [µM] | Activity [5] [%] | Activity [6] [%] | Activity [7] [%] | -logMIC [8] | MIC [8] [µM] | -logMIC [10] | MIC [10] [µM] | Activity [11] [%] | Activity [12] [%] | -logMIC [13] | MIC [13] [µM] | -logMIC [9] | MIC [9] [µM] | Activity [14] [%] | other results |
| --- | --- | --- | --- | --- | --- | --- | --- | --- | --- | --- | --- | --- | --- | --- | --- | --- | --- | --- | --- | --- |
| Cc1ccc2c(c1)SC(c1ccc(Cl)cc1)C1C(=N2)c2ccccc2C1c1ccccc1 (centres undefined) | 0.96 | 1.56 | 27.6 (≈ 12.5 µg/mL) | 7.95 | 111 (≈ 50 µg/mL) | 77.72 | 55.41 | 10.66 | 1.26 | 55.3 (≈ 25 µg/mL) | 1.56 | 27.6 (≈ 12.5 µg/mL) | 55.36 | -78.67 | 1.26 | 55.3 (≈ 25 µg/mL) |  |  |  | Activity [9]: inactive |
| c1ccc(C2Sc3ccccc3N=C3c4ccccc4C(c4ccccc4)C32)cc1 (centres undefined) | 1.21 | 0.91 | 124 (≈ 50 µg/mL) | 6.96 | 61.9 (≈ 25 µg/mL) |  |  |  | 1.21 | 61.9 (≈ 25 µg/mL) | 1.21 | 61.9 (≈ 25 µg/mL) |  |  | 0.91 | 124 (≈ 50 µg/mL) | 1.21 | 61.9 (≈ 25 µg/mL) |  |  |
| COc1ccc2c(c1)SC(c1ccccc1)C1C(=N2)c2ccccc2C1c1ccccc1 (centres undefined) | 1.24 | 1.54 | 28.8 (≈ 12.5 µg/mL) | 6.71 | 57.6 (≈ 25 µg/mL) | 76.75 | 6.94 | -86.26 | 0.94 | 115 (≈ 50 µg/mL) | 1.24 | 57.6 (≈ 25 µg/mL) | 53.51 | 6.94 | 1.24 | 57.6 (≈ 25 µg/mL) | 1.84 | 14.4 (≈ 6.24 µg/mL) | 76.73 |  |
| CN[C@@H]1[C@H](O[C@H]2[C@H](O[C@H]3[C@H](O)[C@@H](O)[C@H](N=C(N)N)[C@@H](O)[C@@H]3N=C(N)N)O[C@@H](C)[C@]2(O)C=O)O[C@@H](CO)[C@H](O)[C@H]1O [STREPTOMYCIN] |  |  | 5.3 (≈ 3.08 µg/mL) |  | 10.7 (≈ 6.22 µg/mL) |  |  |  |  |  |  | 2.6 (≈ 1.51 µg/mL) |  |  |  |  |  | 10.7 (≈ 6.22 µg/mL) |  |  |
| CC1(C)S[C@@H]2[C@H](NC(=O)Cc3ccccc3)C(=O)N2[C@H]1C(=O)O [PENICILLIN G] |  |  | 37.4 (≈ 12.5 µg/mL) |  | 4.6 (≈ 1.54 µg/mL) |  |  |  |  |  |  | 18.7 (≈ 6.25 µg/mL) |  |  |  |  |  | 4.6 (≈ 1.54 µg/mL) |  |  |
| COc1ccc(C2Sc3ccccc3N=C3c4ccccc4C(c4ccccc4)C32)cc1 (centres undefined) | 0.94 | 0.94 | 115 (≈ 50 µg/mL) | 7.95 | 115 (≈ 50 µg/mL) | 6.94 |  | -86.26 | 0.94 | 115 (≈ 50 µg/mL) |  |  | 53.51 | -86.26 | 1.24 | 57.6 (≈ 25 µg/mL) |  |  |  | Activity [9]: inactive; Activity [10]: inactive |
| Cc1ccc2c(c1)SC(c1ccccc1)C1C(=N2)c2ccccc2C1c1ccccc1 (centres undefined) | 0.92 |  |  | 7.43 | 120 (≈ 50 µg/mL) |  | 51.69 | 3.39 | 1.22 | 59.8 (≈ 25 µg/mL) | 1.52 | 29.9 (≈ 12.5 µg/mL) | 51.73 | -93.37 | 1.22 | 59.8 (≈ 25 µg/mL) | 0.92 | 120 (≈ 50 µg/mL) | -93.37 |  |
| COc1ccc2c(c1)SC(c1ccc(C)cc1)C1C(=N2)c2ccccc2C1c1ccccc1 (centres undefined) | 0.95 | 1.55 | 27.9 (≈ 12.5 µg/mL) | 7.18 | 112 (≈ 50 µg/mL) | 77.48 | 88.85 | 54.92 | 1.55 | 27.9 (≈ 12.5 µg/mL) | 2.16 | 6.9 (≈ 3.09 µg/mL) | 54.96 | -80.45 | 1.25 | 55.8 (≈ 25 µg/mL) | 1.86 | 13.9 (≈ 6.22 µg/mL) | 77.54 |  |
| Clc1ccc(C2Sc3ccccc3N=C3c4ccccc4C(c4ccccc4)C32)cc1 (centres undefined) | 2.15 | 1.24 | 57 (≈ 25 µg/mL) | 7.48 | 7.1 (≈ 3.11 µg/mL) | 53.99 | -84.32 | -84.32 | 0.94 | 114 (≈ 50 µg/mL) | 0.94 | 114 (≈ 50 µg/mL) | 53.99 | 88.52 | 1.24 | 57 (≈ 25 µg/mL) | 1.55 | 28.5 (≈ 12.5 µg/mL) | 53.95 |  |
| COc1ccc(C2Sc3cc(OC)ccc3N=C3c4ccccc4C(c4ccccc4)C32)cc1 (centres undefined) | 1.27 | 1.57 | 26.9 (≈ 12.5 µg/mL) | 6.46 | 53.9 (≈ 25 µg/mL) | 78.28 | -74.15 | 78.35 | 1.87 | 13.4 (≈ 6.21 µg/mL) | 0.97 | 108 (≈ 50 µg/mL) | 89.18 | 12.92 | 1.87 | 13.4 (≈ 6.21 µg/mL) | 2.17 | 6.7 (≈ 3.11 µg/mL) | 89.17 |  |
| COc1ccc(C2Sc3cc(C)ccc3N=C3c4ccccc4C(c4ccccc4)C32)cc1 (centres undefined) | 1.25 | 0.95 | 112 (≈ 50 µg/mL) | 7.18 | 55.8 (≈ 25 µg/mL) | 9.84 | 9.85 | -80.45 | 0.95 | 112 (≈ 50 µg/mL) | 1.25 | 55.8 (≈ 25 µg/mL) | 9.84 | 9.85 | 0.95 | 112 (≈ 50 µg/mL) | 1.55 | 27.9 (≈ 12.5 µg/mL) | 54.92 |  |
| Cc1ccc(C2Sc3ccccc3N=C3c4ccccc4C(c4ccccc4)C32)cc1 (centres undefined) | 1.22 | 0.92 | 120 (≈ 50 µg/mL) | 7.43 | 59.8 (≈ 25 µg/mL) | 3.38 |  |  |  |  |  |  |  | 3.39 |  |  | 0.92 | 120 (≈ 50 µg/mL) | -93.37 | Activity [8]: inactive; Activity [10]: inactive; Activity [13]: inactive |
| OC(Cn1cncn1)(Cn1cncn1)c1ccc(F)cc1F [FLUCONAZOLE] |  |  |  |  |  |  |  |  |  | 10.1 (≈ 3.09 µg/mL) |  |  |  |  |  | 10.1 (≈ 3.09 µg/mL) |  |  |  |  |
